Experiments:
[1] = tested on: ABUTH (Velvetleaf); test: Postemergence herbicidal evaluation; format: in vivo, Abutilon theophrasti
How it was run: (§1)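 First, seedlings were raised for around two weeks. Next, test material in 50/50 acetone/water containing 0.5% TWEEN 20 was sprayed through a nozzle at 40 psi, equivalent to about 0.0156–0.500 kg/ha. Finally, after 4–5 weeks in the greenhouse, plants were rated 0–9.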

[2] = tested on: AMBEL (Ragweed, Common); test: Postemergence herbicidal evaluation; format: in vivo, Ambrosia artemisifolia
How it was run: as §1

[3] = tested on: ECHCG (Barnyardgrass); test: Postemergence herbicidal evaluation; format: in vivo, Echinochloa crus-galli
How it was run: as §1

[4] = tested on: SETVI (Foxtail, Green); test: Postemergence herbicidal evaluation; format: in vivo, Setaria viridis
How it was run: as §1

[5] = tested on: GLXMAW (Soybean, Williams); test: Postemergence herbicidal evaluation; format: in vivo, Glycine max, (L.) Merr. cv Williams
How it was run: as §1

[6] = tested on: ORYSAT (Rice, Tebonnet); test: Postemergence herbicidal evaluation; format: in vivo, Oryza sativa, (L.) Tebonnet
How it was run: as §1

[7] = tested on: TRZAWR (Wheat, Winter, cv Riband); test: Postemergence herbicidal evaluation; format: in vivo, Triticum aestivum
How it was run: as §1

[8] = tested on: ABUTH (Velvetleaf); test: Preemergence herbicidal evaluation; format: in vivo, Abutilon theophrasti; conditions: rated 4-5 weeks after treatment
How it was run: (§2)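 Herbicidal effect scored visually, 0-9, at 4 to 5 weeks against a control; compound applied preemergence by aqueous acetone spray to seeded soil at about 0.0156 to 0.500 kg/ha.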

[9] = tested on: CASOB (Sicklepod); test: Preemergence herbicidal evaluation; format: in vivo, Cassia obtusifolia; conditions: rated 4-5 weeks after treatment
How it was run: as §2

[10] = tested on: SETVI (Foxtail, Green); test: Preemergence herbicidal evaluation; format: in vivo, Setaria viridis; conditions: rated 4-5 weeks after treatment
How it was run: as §2

[11] = tested on: MOOVA (Monochoria); test: Preemergence weed control under flooded paddy conditions; format: in vivo, Monochoria vaginalis; conditions: rated 3-4 weeks after treatment
How it was run: (§3)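 Values are visual 0-9 scores against a control for a preemergence application into paddy flood water at about 0.0313 to 0.500 kg/ha. Greenhouse duration was three to four weeks.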

[12] = tested on: SAGPY (Arrowhead (Pygmaea)); test: as above; format: in vivo, Sagittaria pygmaea; conditions: rated 3-4 weeks after treatment
How it was run: as §3

[13] = tested on: CYPIR (Rice Flatsedge); test: Postemergence weed control under flooded paddy conditions; format: in vivo, Cyperus iria; conditions: postemergence weeds, 3-4 weeks after treatment
How it was run: (§4)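 Flood-water application, about 0.0313–0.500 kg/ha a.i. in aqueous/acetone 50/50 v/v; water depth 1.5–3 cm throughout. Weeds 3–5 cm, rice 1.5–2.5 leaf. Greenhouse; 0–9 visual rating vs control at 3–4 wk.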

[14] = tested on: SAGPY (Arrowhead (Pygmaea)); test: as above; format: in vivo, Sagittaria pygmaea; conditions: postemergence weeds, 3-4 weeks after treatment
How it was run: as §4

## Cn1c(C(F)(F)F)cc(=O)n(-c2cc(N=C3SCC(=O)N3CC(=O)OC(C)(C)C)c(Cl)cc2F)c1=O [Compound 43, tert-Butyl 2-{{2-chloro-5-[3,6-dihydro-3-methyl-2,6-dioxo-4-(trifluoromethyl)-1(2H)-pyrimidinyl]-4-fluorophenyl}imino}-4-oxo-3-thiazolidineacetate]
[1]; Rate 0.0158 kg/ha
  Postemergence herbicidal rating ABUTH: 9.0
[1]; Rate 0.0315 kg/ha
  Postemergence herbicidal rating ABUTH: 9.0
[1]; Rate 0.0630 kg/ha
  Postemergence herbicidal rating ABUTH: 9.0
[2]; Rate 0.0158 kg/ha
  Postemergence herbicidal rating AMBEL: 9.0
[2]; Rate 0.0315 kg/ha
  Postemergence herbicidal rating AMBEL: 9.0
[2]; Rate 0.0630 kg/ha
  Postemergence herbicidal rating AMBEL: 9.0
[3]; Rate 0.0158 kg/ha
  Postemergence herbicidal rating ECHCG: 0.0
[3]; Rate 0.0315 kg/ha
  Postemergence herbicidal rating ECHCG: 0.0
[3]; Rate 0.0630 kg/ha
  Postemergence herbicidal rating ECHCG: 0.0
[4]; Rate 0.0158 kg/ha
  Postemergence herbicidal rating SETVI: 3.0
[4]; Rate 0.0315 kg/ha
  Postemergence herbicidal rating SETVI: 3.0
[4]; Rate 0.0630 kg/ha
  Postemergence herbicidal rating SETVI: 8.0
[5]; Rate 0.0158 kg/ha
  Postemergence herbicidal rating GLXMAW: 7.5
[5]; Rate 0.0315 kg/ha
  Postemergence herbicidal rating GLXMAW: 7.0
[5]; Rate 0.0630 kg/ha
  Postemergence herbicidal rating GLXMAW: 7.0
[6]; Rate 0.0158 kg/ha
  Postemergence herbicidal rating ORYSAT: 1.0
[6]; Rate 0.0315 kg/ha
  Postemergence herbicidal rating ORYSAT: 2.0
[6]; Rate 0.0630 kg/ha
  Postemergence herbicidal rating ORYSAT: 3.0
[7]; Rate 0.0158 kg/ha
  Postemergence herbicidal rating TRZAWR: 3.0
[7]; Rate 0.0315 kg/ha
  Postemergence herbicidal rating TRZAWR: 3.5
[7]; Rate 0.0630 kg/ha
  Postemergence herbicidal rating TRZAWR: 4.0
[8]; rate 0.0156 kg/ha
  Preemergence herbicidal rating ABUTH: 9.0
[8]; rate 0.0313 kg/ha
  Preemergence herbicidal rating ABUTH: 9.0
[8]; rate 0.0625 kg/ha
  Preemergence herbicidal rating ABUTH: 9.0
[8]; rate 0.1250 kg/ha
  Preemergence herbicidal rating ABUTH: 9.0
[8]; rate 0.2500 kg/ha
  Preemergence herbicidal rating ABUTH: 9.0
[9]; rate 0.0156 kg/ha
  Preemergence herbicidal rating CASOB: 0.0
[9]; rate 0.0313 kg/ha
  Preemergence herbicidal rating CASOB: 0.0
[9]; rate 0.0625 kg/ha
  Preemergence herbicidal rating CASOB: 0.0
[9]; rate 0.1250 kg/ha
  Preemergence herbicidal rating CASOB: 8.0
[9]; rate 0.2500 kg/ha
  Preemergence herbicidal rating CASOB: 9.0
[10]; rate 0.0156 kg/ha
  Preemergence herbicidal rating SETVI: 0.0
[10]; rate 0.0313 kg/ha
  Preemergence herbicidal rating SETVI: 0.0
[10]; rate 0.0625 kg/ha
  Preemergence herbicidal rating SETVI: 0.0
[10]; rate 0.1250 kg/ha
  Preemergence herbicidal rating SETVI: 5.0
[10]; rate 0.2500 kg/ha
  Preemergence herbicidal rating SETVI: 9.0
[11]; 0.0313 kg/ha
  Herbicidal rating MOOVA: 9.0
[11]; 0.0625 kg/ha
  Herbicidal rating MOOVA: 9.0
[11]; 0.1250 kg/ha
  Herbicidal rating MOOVA: 9.0
[11]; 0.2500 kg/ha
  Herbicidal rating MOOVA: 9.0
[12]; 0.0313 kg/ha
  Herbicidal rating SAGPY: 7.0
[12]; 0.0625 kg/ha
  Herbicidal rating SAGPY: 7.0
[12]; 0.1250 kg/ha
  Herbicidal rating SAGPY: 7.0
[12]; 0.2500 kg/ha
  Herbicidal rating SAGPY: 9.0
[13]; rate 0.0313 kg/ha
  Herbicidal rating CYPIR: 0.0
[13]; rate 0.1250 kg/ha
  Herbicidal rating CYPIR: 4.0
[13]; rate 0.2500 kg/ha
  Herbicidal rating CYPIR: 5.0
[14]; rate 0.0313 kg/ha
  Herbicidal rating SAGPY: 7.0
[14]; rate 0.0825 kg/ha
  Herbicidal rating SAGPY: 7.0
[14]; rate 0.1250 kg/ha
  Herbicidal rating SAGPY: 7.0
[14]; rate 0.2500 kg/ha
  Herbicidal rating SAGPY: 9.0
